# Measurements taken from US7880042B2, “Tetrahydronaphthalene derivatives, methods for the production thereof, and the use thereof as antiphlogistics” (Bayer Schering Pharma AG, priority 2006, dated 2011).
# Like-named read-outs stand apart in the source and are kept apart here.
# Experiments:
# [1] = test system: tyrosine aminotransferase (TAT); assay: TAT induction in vitro; type: cell-based; conditions: for Emax: read-out: TAT eff
# [2] = test system: lipopolysaccharide (LPS)-initiated secretion of the cytokine IL-8 in the human THP-1 monocyte cell line; assay: Inhibition of LPS-initiated IL-8 secretion in THP-1 cells; type: cell-based; conditions: for Emax / IC50: Homo sapiens; for Emax: read-out: IL8 eff; for IC50: read-out: IL8 IC50; for Diss. (TATEC50/IL8IC50): ratio TAT EC50 / IL8 IC50
# [3] = inventive stereoisomers, efficacy of TAT induction
# [4] = inventive stereoisomers, in vitro TAT induction
# [5] = THP-1, inventive stereoisomers, efficacy of IL-8 inhibition
# [6] = inventive stereoisomers, LPS-initiated IL-8 secretion, THP-1 cells
# [7] = prior-art compounds (WO2005/034939)
# [8] = THP-1, prior-art compounds (WO2005/034939)
# [9] = inventive stereoisomers, in vitro TAT induction, cells printed in μM
Structure (SMILES),"Emax [1, 3] [%]","EC50 [1, 4] [µM]","Emax [2, 5] [%]","IC50 [2, 6] [nM]",Diss. (TATEC50/IL8IC50) ([2]; inventive stereoisomers),"EC50 [1, 7] [µM]","Emax [1, 7] [%]","IC50 [2, 8] [nM]","Emax [2, 8] [%]","Diss. (TATEC50/IL8IC50) [2, 7]","EC50 [1, 9] [µM]"
"CC[C@@H]1C[C@](O)(C(F)(F)F)[C@@H](Nc2cc(F)cc3nc(C)ncc23)c2ccc(F)c(O)c21 [Example 30A, (5S,6R,8R)-8-Ethyl-2-fluoro-5-[(7-fluoro-2-methylquinazolin-5-yl)amino]-6-(trifluoromethyl)-5,6,7,8-tetrahydronaphthalene-1,6-diol]",95,0.017,89,6.6,2.8,–,–,–,–,–,–
"CC[C@H]1C[C@](O)(C(F)(F)F)[C@@H](Nc2cc(F)cc3[nH]c(=O)ccc23)c2ccc(Cl)c(O)c21 (stereo in doubt) [Example 101, 5-{[(1α,2α,4α)-6-Chloro-2,5-Dihydroxy-4-ethyl-2-(trifluoromethyl)-1,2,3,4-tetrahydronaphthalen-1-yl]amino}-7-fluoro-1H-quinolin-2-one]",97,0.074,92,1.8,41,–,–,–,–,–,–
Cc1ncc2c(NC3c4ccc(Cl)c(O)c4C(C)(C)CC3(O)C(F)(F)F)ccc(F)c2n1 (centres unmarked) [reference compound],–,–,–,–,–,0.003,98,22,73,0.14,–
Cc1ncc2c(NC3c4cc(C)c(F)c(O)c4C(C)(C)CC3(O)C(F)(F)F)ccc(F)c2n1 (centres unmarked) [reference compound],–,–,–,–,–,0.0065,100,40,79,0.16,–
"CC[C@H]1C[C@](O)(C(F)(F)F)[C@@H](Nc2cccc3[nH]c(=O)ccc23)c2ccc(F)c(O)c21 (stereo in doubt) [Example 43, 5-{[(1α,2α,4α)-4-Ethyl-6-fluoro-2,5-dihydroxy-2-(trifluoromethyl)-1,2,3,4-tetrahydronaphthalen-1-yl]amino}quinolin-2(1H)-one]",100,0.043,88,12,3.6,–,–,–,–,–,–
CCC1CC(O)(C(F)(F)F)C(Nc2cccc3nc(C)ccc23)c2ccc(F)c(O)c21 (centres unmarked) [reference compound],–,–,–,–,–,0.14,88,220,69,0.64,–
"CC[C@@H]1C[C@](O)(C(F)(F)F)[C@@H](Nc2cc(F)cc3nc(C)ncc23)c2cc(F)c(F)c(O)c21 [Example 51A, (5α,6α,8β)-8-Ethyl-2,3-difluoro-5-[(7-fluoro-2-methylquinazolin-5-yl)amino]-6-(trifluoromethyl)-5,6,7,8-tetrahydronaphthalene-1,6-diol]",81,0.15,72,13,11.5,–,–,–,–,–,–
CC1(C)CC(O)(C(F)(F)F)C(Nc2cc(F)cc3[nH]ncc23)c2ccc(F)c(O)c21 (centres unmarked) [reference compound],–,–,–,–,–,0.0043,100,20,88,0.22,–
Cc1ccc2c(N[C@H]3c4ccc(F)c(O)c4[C@H](C)C[C@]3(O)C(F)(F)F)cccc2n1 [Example 1],62,–,79,22,45.5,–,–,–,–,–,1
"CCC1CC(O)(C(F)(F)F)C(Nc2cccc3[nH]c(=O)ccc23)c2cc(F)cc(O)c21 (centres unmarked) [Example 75, 5-{[4-Ethyl-7-fluoro-2,5-dihydroxy-2-(trifluoromethyl)-1,2,3,4-tetrahydronaphthalen-1-yl]amino}quinolin-2(1H)-one]",89,0.12,68,7.1,16.9,–,–,–,–,–,–
"Cc1ccc2c(NC3c4ccc(F)c(O)c4C(C(C)C)CC3(O)C(F)(F)F)cccc2n1 (centres unmarked) [Example 65, 2-Fluoro-5-[(2-methylquinolin-5-yl)amino]-8-(Prop-2-yl)-6-(trifluoromethyl)-5,6,7,8-tetrahydronaphthalene-1,6-diol]",73,–,58,38,26.3,–,–,–,–,–,1
CC1(C)CC(O)(C(F)(F)F)C(Nc2cccc3[nH]c(=O)ccc23)c2ccc(F)c(O)c21 (centres unmarked) [reference compound],–,–,–,–,–,0.0038,92,14,68,0.27,–
"CC[C@@H]1C[C@](O)(C(F)(F)F)[C@@H](Nc2cccc3c(=O)[nH]ccc23)c2cc(Cl)c(C)c(O)c21 [Example 121B, 5-{[(1S,2R,4R)-7-chloro-2,5-Dihydroxy-6-methyl-4-ethyl-2-(trifluoromethyl)-1,2,3,4-tetrahydronaphthalen-1-yl]amino}-2H-quinolin-1-one]",99,0.3,88,3.7,81,–,–,–,–,–,–
"CC[C@@H]1C[C@](O)(C(F)(F)F)[C@@H](Nc2cccc3[nH]c(=O)ccc23)c2cc(F)c(F)c(O)c21 [Example 54, 5-{[(1α,2α,4β)-4-ethyl-6,7-difluoro-2,5-dihydroxy-2-(trifluoromethyl)-1,2,3,4-tetrahydronaphthalen-1-yl]amino}quinolin-2(1H)-one]",76,0.49,78,5.7,86,–,–,–,–,–,–
Cc1ncc2c(NC3c4cc(Cl)c(F)c(O)c4C(C)(C)CC3(O)C(F)(F)F)cc(F)c(F)c2n1 (centres unmarked) [reference compound],–,–,–,–,–,0.0042,100,31,96,0.14,–
"CC[C@@H]1C[C@](O)(C(F)(F)F)[C@@H](Nc2cccc3nc(C)ncc23)c2ccc(F)c(O)c21 [Example 29A, (5α,6α,8β)-8-Ethyl-2-fluoro-5-[(2-methylquinazolin-5-yl)amino]-6-(trifluoromethyl)-5,6,7,8-tetrahydronaphthalene-1,6-diol]",95,0.12,77,16,7.5,–,–,–,–,–,–
